Patent US12077503B2, “Substituted cyclic amides and their use as herbicides” (FMC CORPORATION, priority 2015, dated 2024)

Key:
Type in all cases: in vivo
[1] = test system: Galium (catchweed bedstraw, Galium aparine); experiment: Test A postemergence; details: Galium, post-emergence, 240 h, read-out: Galium plant response rating (0 to 100 scale)
Summary of the method: (§1)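 Seeds sprayed preemergence with a directed soil spray, or plants at 2 to 10 cm height and one- to two-leaf stage sprayed postemergence, with test chemicals in a non-phytotoxic solvent mixture containing surfactant, in loam soil–sand blend. Injury rated visually against untreated controls after about 10 d in greenhouse, 0 (no effect) to 100 (complete control).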

[2] = test system: pigweed (Amaranthus retroflexus); experiment: Test A postemergence; details: Amaranthus retroflexus, post-emergence, 240 h, read-out: Pigweed plant response rating (0 to 100 scale)
Summary of the method: as §1

[3] = test system: corn (Zea mays); experiment: Test A postemergence; details: Zea mays, post-emergence, 240 h, read-out: Corn plant response rating (0 to 100 scale)
Summary of the method: as §1

[4] = test system: ryegrass, Italian (Italian ryegrass, Lolium multiflorum); experiment: Test A postemergence; details: Lolium multiflorum, post-emergence, 240 h, read-out: Ryegrass, Italian plant response rating (0 to 100 scale)
Summary of the method: as §1

[5] = test system: wheat (Triticum aestivum); experiment: Test A postemergence; details: Triticum aestivum, post-emergence, 240 h, read-out: Wheat plant response rating (0 to 100 scale)
Summary of the method: as §1

[6] = test system: ragweed (common ragweed, Ambrosia elatior); experiment: Test A postemergence; details: Ambrosia artemisiifolia, post-emergence, 240 h, read-out: Ragweed plant response rating (0 to 100 scale)
Summary of the method: as §1

[7] = test system: giant foxtail (Setaria faberii); experiment: Test A postemergence; details: Setaria faberi, post-emergence, 240 h, read-out: Foxtail, Giant plant response rating (0 to 100 scale)
Summary of the method: as §1

[8] = test system: Kochia (Kochia scoparia); experiment: Test A postemergence; details: Bassia scoparia, post-emergence, 240 h, read-out: Kochia plant response rating (0 to 100 scale)
Summary of the method: as §1

[9] = test system: blackgrass (Alopecurus myosuroides); experiment: Test A postemergence; details: Alopecurus myosuroides, post-emergence, 240 h, read-out: Blackgrass plant response rating (0 to 100 scale)
Summary of the method: as §1

[10] = test system: barnyardgrass (Echinochloa crus-galli); experiment: Test A postemergence; details: Echinochloa crus-galli, post-emergence, 240 h, read-out: Barnyardgrass plant response rating (0 to 100 scale)
Summary of the method: as §1

[11] = test system: pigweed (Amaranthus retroflexus); experiment: Test A preemergence; details: Amaranthus retroflexus, pre-emergence, 240 h, 0 to 100 scale where 0 is no effect and 100 is complete control, read-out: Pigweed plant response rating
[12] = test system: ryegrass, Italian (Italian ryegrass, Lolium multiflorum); experiment: Test A preemergence; details: Lolium multiflorum, pre-emergence, 240 h, 0 to 100 scale where 0 is no effect and 100 is complete control, read-out: Ryegrass, Italian plant response rating
Summary of the method: as §1

[13] = test system: ragweed (common ragweed, Ambrosia elatior); experiment: Test A preemergence; details: Ambrosia artemisiifolia, pre-emergence, 240 h, 0 to 100 scale where 0 is no effect and 100 is complete control, read-out: Ragweed plant response rating
Summary of the method: as §1

[14] = test system: giant foxtail (Setaria faberii); experiment: Test A preemergence; details: Setaria faberi, pre-emergence, 240 h, 0 to 100 scale where 0 is no effect and 100 is complete control, read-out: Foxtail, Giant plant response rating
Summary of the method: as §1

[15] = test system: Kochia (Kochia scoparia); experiment: Test A preemergence; details: Bassia scoparia, pre-emergence, 240 h, 0 to 100 scale where 0 is no effect and 100 is complete control, read-out: Kochia plant response rating
Summary of the method: as §1

[16] = test system: barnyardgrass (Echinochloa crus-galli); experiment: Test A preemergence; details: Echinochloa crus-galli, pre-emergence, 240 h, 0 to 100 scale where 0 is no effect and 100 is complete control, read-out: Barnyardgrass plant response rating
Summary of the method: as §1

[17] = test system: sedge, umbrella (small-flower umbrella sedge, Cyperus difformis); experiment: Test B flooded paddy test; details: Cyperus difformis, 250 g ai/ha, Flood; 0 to 100 scale where 0 is no effect and 100 is complete control; read-out: Sedge, Umbrella plant response rating
Summary of the method: (§2)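 2-leaf plants; pots flooded 3 cm over soil; cpd added to paddy water; depth held; greenhouse 13–15 d; visual rating vs controls, 0 = no effect, 100 = complete control.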

[18] = test system: rice (Oryra sativa); experiment: Test B flooded paddy test; details: Oryza sativa, 250 g ai/ha, Flood; 0 to 100 scale where 0 is no effect and 100 is complete control; read-out: Rice plant response rating
Summary of the method: as §2

[19] = test system: ducksalad (Heteranthera limosa); experiment: Test B flooded paddy test; details: Heteranthera limosa, 250 g ai/ha, Flood; 0 to 100 scale where 0 is no effect and 100 is complete control; read-out: Ducksalad plant response rating
Summary of the method: as §2

[20] = test system: barnyardgrass (Echinochloa crus-galli); experiment: Test B flooded paddy test; details: Echinochloa crus-galli, 250 g ai/ha, Flood; 0 to 100 scale where 0 is no effect and 100 is complete control; read-out: Barnyardgrass plant response rating
Summary of the method: as §2

[21] = 125 g ai/ha, postemergence, visual injury vs untreated controls after approx. 10 d, 0 = no effect, 100 = complete control
[22] = Postemergence, 31 g ai/ha, 0 is no effect, 100 is complete control
[23] = 125 g ai/ha, preemergence, visual injury rating, approximately 10 d

CN1C[C@H](c2ccc(C#N)c(F)c2)[C@@H](C(=O)Nc2cccc(F)c2F)C1=O [Compound 1192] showed a pest or weed control at 125 g/ha [1, 21] of 50%, a pest or weed control at 31 g/ha [1, 22] of 0% and a pest or weed control at 125 g/ha [2, 21] of 20%. The pest or weed control at 31 g/ha [2, 22] was 0%, the plant injury at 125 g/ha [3, 21] was 40% and the plant injury at 31 g/ha [3, 22] was 0%. For the same compound, the pest or weed control at 125 g/ha [4, 21] was 0%, the pest or weed control at 31 g/ha [4, 22] was 0% and the plant injury at 125 g/ha [5, 21] was 0%. The plant injury at 31 g/ha [5, 22] was 0%, the pest or weed control at 125 g/ha [6, 21] was 0% and the pest or weed control at 31 g/ha [6, 22] was 0%. For the same compound, the pest or weed control at 125 g/ha [7, 21] was 70%, the pest or weed control at 31 g/ha [7, 22] was 40% and the pest or weed control at 125 g/ha [8, 21] was 40%. For the same compound, the pest or weed control at 31 g/ha [8, 22] was 0%, the pest or weed control at 125 g/ha [9, 21] was 0% and the pest or weed control at 31 g/ha [9, 22] was 0%. It also gave a pest or weed control at 125 g/ha [10, 21] of 100%, a pest or weed control at 31 g/ha [10, 22] of 50% and a pest or weed control at 31 g/ha ([11]; 31 g ai/ha, Preemergence) of 0%. The pest or weed control at 125 g/ha [11, 23] was 30%, the pest or weed control at 31 g/ha ([12]; 31 g ai/ha, Preemergence) was 0% and the pest or weed control at 125 g/ha [12, 23] was 0%. The pest or weed control at 31 g/ha ([13]; 31 g ai/ha, Preemergence) was 0%, the pest or weed control at 125 g/ha [13, 23] was 0% and the pest or weed control at 31 g/ha ([14]; 31 g ai/ha, Preemergence) was 30%. The pest or weed control at 125 g/ha [14, 23] was 100%, the pest or weed control at 31 g/ha ([15]; 31 g ai/ha, Preemergence) was 0% and the pest or weed control at 125 g/ha [15, 23] was 50%. For the same compound, the pest or weed control at 31 g/ha ([16]; 31 g ai/ha, Preemergence) was 70%, the pest or weed control at 125 g/ha [16, 23] was 100% and the pest or weed control at 250 g/ha [17] was 30%. For the same compound, the pest or weed control at 250 g/ha [18] was 30%, the pest or weed control at 250 g/ha [19] was 95% and the pest or weed control at 250 g/ha [20] was 100%.
